Test results taken from US9822336B2, “Blastoid, cell line based artificial blastocyst” (Universiteit Maastricht, priority 2013, dated 2017).

Columns and labels:
Type in all cases: cell-based, mouse
[1] = tested on: ES-TS cell clusters; assay: Cavitation of ES-TS cell clusters (yield of cavitated blastoids); settings: for yield of blastoids cavitation: FIG. 4i, added to CHIR99021 3 uM, versus control with CHIR99021 3 uM only; for yield of cavitated blastoids / cavitation: FIG. 4h
Description: FIG. 4c: […], The yield of cavitated blastoids is described by the percentage of ES-TS cell clusters that were cavitated after 96 hours of culture, thus forming an artificial blastocyst or blastoid. […]
The efficiency of blastoid formation is measured as the percentage of cavitated structures with (1) an external cellular layer expressing the transcription factors CDX2, Eomes and GATA3 and (2) an internal cellular aggregate expressing the transcription factors Oct4 and Sox2 and at least partly Nanog.
The formation of a cavity is assessed by the formation of a volume within the aggregate that is not occupied by cellular nucleus. The formation of a cavity is preferably assessed using the cross-sectional section of a cellular aggregate stained with a nuclear-specific dye (for example DAPI).
• Double layer formation: the formation of an (at least) double layered cell aggregate with an external layer of TS cells and an inner layer of ES cells is evaluated using transgenic cell lines. Specifically, ES cells were transfected with Histone 2B and a Red Fluorescent Protein under the control of a cytomegalovirus promoter and clonally derived. The H2B-RFP ES cells are thus constitutively expressing a red fluorescence within their nucleus which allows for their tracking. • TS cells were derived from a mouse constitutively expressing Green Fluorescent Protein (GFP) under the control of a cytomegalovirus promoter in all cells. The GFP TS cells are thus expressing a green fluorescence in their cytoplasma which allows for their tracking. • The formation of a double-layered aggregate is thus assessed by observing a green outer layer of cells and a red inner layer of cells. The efficiency of engulfment is determined as the percentage of green-colored projection area (representing the TS cell layer) that overlaps with an artificial 3-pixel-wide ring drawn around the red-colored projection area (representing the inner aggregate of ES cells) after 24 hours of culturing the ES-TS cell clusters. The said efficiency of engulfment described in FIG. 4 represents the average value taken from approximately 200 ES-TS cell clusters. • Cavitation: The formation of a cavity is assessed by the formation of a volume within the aggregate that is not occupied by cellular nucleus. The formation of a cavity is preferably assessed using the cross-sectional section of a cellular aggregate stained with a nuclear-specific dye (for example DAPI). […] The expression of cdx2 is assessed as the number of GFP positive cells with a cdx2 positive nucleus per 10 μm microscopic section. The expression of the transcription factors Oct4 and Nanog is assessed by conventional immunocytochemistry in ES-TS aggregates including H2B-RFP expressing ES cells. The expression of Oct4 and Nanog is assessed as the number of H2B-RFP positive cells with an Oct4 or Nanog positive nucleus per 10 μm microscopic section. Pictoral Summary of the Procedure for Blastoid Formation: […]

[2] = tested on: inner cell mass (ICM) of blastoids; assay: Size of inner cell mass (ICM) in cavitated blastoids, projection area; settings: up to a concentration of 1000 μM (FIG. 4f)
Description: FIG. 4d: size of inner cell mass (ICM) as a function of the average number of ES-cells seeded per microwell. Size of ICM, measured as the projection area of the ES cell cluster inside the cavitated blastoid, increases with increasing numbers of ES cells seeded per microwell.
The size of the inner cell mass (ICM) depends on the average number of ES-cells seeded, and increases with the number of ES-cells seeded per microwell as described in FIG. 4. The size as defined by its projection area is generally between 1000 and 5000 um^2, preferably between 2000 and 4500 um^2. The size is conveniently expressed by determining the projection area (in um^2) of the ICM through light microscopy.

[3] = tested on: ES-TS cell clusters; assay: Efficiency of engulfment during formation of ES-TS cell clusters; settings: at higher concentration of Y27632; after 24 hours of culture (FIG. 4a)
Description: Mouse TS-cells were seeded at 17 cells/microwell in 150 μL B27N2 medium. After 20 minutes, 1 ml of B27N2 medium was added that included 10% FBS, Y27632 20 μM, 8Br-cAMP (1 mM), 007-AM (1 nM) and CHIR 3 μM, FGF4 15 ng/ml, Tgfb1 5 ng/ml, IGF2, 10 ng/ml, estradiol 10 ng/ml. The cells were placed in an incubator set at 37° Celsius to form the ES-TS cell cluster. • Double layer formation: the formation of an (at least) double layered cell aggregate with an external layer of TS cells and an inner layer of ES cells is evaluated using transgenic cell lines. […] The H2B-RFP ES cells are thus constitutively expressing a red fluorescence within their nucleus which allows for their tracking. • TS cells were derived from a mouse constitutively expressing Green Fluorescent Protein (GFP) under the control of a cytomegalovirus promoter in all cells. The GFP TS cells are thus expressing a green fluorescence in their cytoplasma which allows for their tracking. • The formation of a double-layered aggregate is thus assessed by observing a green outer layer of cells and a red inner layer of cells. […] The said efficiency of engulfment described in FIG. 4 represents the average value taken from approximately 200 ES-TS cell clusters. • Cavitation: The formation of a cavity is assessed by the formation of a volume within the aggregate that is not occupied by cellular nucleus. […]

[4] = tested on: Cdx2 expression in trophoblast stem cells of ES-TS aggregates; assay: Cdx2 expression by CDX2 immunostaining; settings: CDX2 immunostaining (FIG. 4g)
Description: • Double layer formation: the formation of an (at least) double layered cell aggregate with an external layer of TS cells and an inner layer of ES cells is evaluated using transgenic cell lines. Specifically, ES cells were transfected with Histone 2B and a Red Fluorescent Protein under the control of a cytomegalovirus promoter and clonally derived. The H2B-RFP ES cells are thus constitutively expressing a red fluorescence within their nucleus which allows for their tracking. • TS cells were derived from a mouse constitutively expressing Green Fluorescent Protein (GFP) under the control of a cytomegalovirus promoter in all cells. The GFP TS cells are thus expressing a green fluorescence in their cytoplasma which allows for their tracking. • The formation of a double-layered aggregate is thus assessed by observing a green outer layer of cells and a red inner layer of cells. The efficiency of engulfment is determined as the percentage of green-colored projection area (representing the TS cell layer) that overlaps with an artificial 3-pixel-wide ring drawn around the red-colored projection area (representing the inner aggregate of ES cells) after 24 hours of culturing the ES-TS cell clusters. […] The formation of a cavity is preferably assessed using the cross-sectional section of a cellular aggregate stained with a nuclear-specific dye (for example DAPI). […]

Nc1ncnc2c1nc(Br)n2[C@@H]1O[C@@H]2COP(=O)(O)O[C@H]2[C@H]1O [8Br-cAMP]
yield of cavitation ([1]; 8Br-cAMP 0.1-10 mM, for example 1 mM): increases the yield of cavitation
yield of blastoids cavitation [1]: increase the yield of blastoids cavitation
size of ICM [2]: positively correlates with an increase in the size of ICM

Cc1c[nH]c(-c2cnc(NCCNc3ccc(C#N)cn3)nc2-c2ccc(Cl)cc2Cl)n1 [CHIR99021, 6-{2-[4-(2,4-dichloro-phenyl)-5-(4-methyl-1H-imidazol-2-yl)-pyrimidin-2-ylamino]-ethylamino}-nicotinonitrile]
blastoid yield ([1]; CHIR99021 at 3 uM): 10%
blastoid yield ([1]; CHIR99021 at 20 uM): ~30%
yield of cavitated blastoids / cavitation ([1]; CHIR99021 at 3 uM): increases the yield of cavitated blastoids
yield of cavitated blastoids ([1]; increasing concentrations (FIG. 4e)): positively correlate with an increase in the yield of cavitated blastoids

CC(C)[C@H]1C(=O)N[C@H](CO)Cc2c[nH]c3cccc(c23)N1C [Indolactam V]
yield of blastoids cavitation [1]: increase the yield of blastoids cavitation
yield of cavitation ([1]; Indolactam V 0.1-10 uM, for example 1 uM): increases the yield of cavitation

Oc1nc(-c2ccc(C(F)(F)F)cc2)nc2c1CSCC2 [XAV939]
yield of cavitated blastoids / cavitation ([1]; CHIR99021 at 3 uM): prevents the cavitation of blastoids

C[C@@H](N)[C@H]1CC[C@H](C(=O)Nc2ccncc2)CC1 [Y27632, (1R,4r)-4-((R)-1-aminoethyl)-N-(pyridin-4-yl)cyclohexanecarboxamide]
efficiency of engulfment [3]: increase in efficiency of engulfment

IGF2: a protein and a growth factor known in the art to activate the Akt pathway
Cdx2 expression [4]: positively correlates with an increase of Cdx2 expression
